How the values were obtained:
[1] = xn = mol fraction of the nth substance listed; details: 298.15 K, 101 kPa, Liquid; for speed of sound: Quartz crystal interferometer (Mittal Enterprises, India)
[2] = 298.15 K, 101.33 kPa, Liquid

CCCCC(C)O (stereo not drawn) [2-hexanol] + CC1CCCCC1
[1]
Details | mass density [kg/m3] | speed of sound [m/s] | viscosity [mPa·s]
x2 = 0.1002 | – | 1252 | –
x2 = 0.1017 | 804.9 | – | 3.089
x2 = 0.1514 | 802.31 | – | 2.701
x2 = 0.2026 | 799.67 | – | 2.344
x2 = 0.2041 | – | 1239 | –
x2 = 0.2473 | 797.41 | – | 2.082
x2 = 0.2837 | – | 1231 | –
x2 = 0.2995 | 794.85 | – | 1.836
x2 = 0.3508 | 792.24 | – | 1.632
x2 = 0.3521 | – | 1225 | –
x2 = 0.3989 | – | 1222 | –
x2 = 0.4019 | 789.75 | – | 1.468
x2 = 0.452 | 787.34 | – | 1.345
x2 = 0.4948 | – | 1216 | –
x2 = 0.4972 | 785.2 | – | 1.227
x2 = 0.5955 | 780.68 | – | 1.052
x2 = 0.5978 | – | 1212 | –
x2 = 0.6904 | – | 1209 | –
x2 = 0.6956 | 776.28 | – | 0.917
x2 = 0.808 | – | 1208 | –
x2 = 0.8089 | 771.63 | – | 0.798
x2 = 0.8967 | – | 1214 | –
x2 = 0.8987 | 768.24 | – | 0.729
x2 = 0.9509 | – | 1215 | –

CC1CCCCC1 [methylcyclohexane] + CCO
[1]
Details | mass density [kg/m3] | speed of sound [m/s] | viscosity [mPa·s]
x1 = 0.0499 | 782.02 | – | 1.034
x1 = 0.1024 | 779.14 | – | 0.987
x1 = 0.1037 | – | 1146 | –
x1 = 0.1492 | 776.99 | – | 0.949
x1 = 0.1893 | – | 1151 | –
x1 = 0.194 | 775.25 | – | 0.915
x1 = 0.2467 | 773.53 | – | 0.886
x1 = 0.313 | 771.77 | – | 0.853
x1 = 0.3143 | – | 1157 | –
x1 = 0.3363 | 771.24 | – | 0.841
x1 = 0.4007 | – | 1162 | –
x1 = 0.4015 | 769.94 | – | 0.81
x1 = 0.4438 | 769.21 | – | 0.79
x1 = 0.4752 | 768.72 | – | 0.776
x1 = 0.4788 | – | 1166 | –
x1 = 0.5844 | 767.23 | – | 0.732
x1 = 0.5884 | – | 1173 | –
x1 = 0.6993 | – | 1181 | –
x1 = 0.7002 | 765.95 | – | 0.692
x1 = 0.8147 | 765.03 | – | 0.672
x1 = 0.8209 | – | 1191 | –
x1 = 0.8864 | 764.74 | – | 0.667
x1 = 0.8943 | – | 1196 | –
x1 = 0.9473 | – | 1202 | –

CCCC(C)O (stereo not drawn) [pentan-2-ol] + CC1CCCCC1
[1]
Details | mass density [kg/m3] | speed of sound [m/s] | viscosity [mPa·s]
x2 = 0.067 | 801.75 | – | 2.764
x2 = 0.1011 | 799.88 | – | 2.501
x2 = 0.1026 | – | 1227 | –
x2 = 0.1561 | 796.91 | – | 2.148
x2 = 0.2018 | – | 1219 | –
x2 = 0.2088 | 794.12 | – | 1.863
x2 = 0.2653 | 791.21 | – | 1.618
x2 = 0.2991 | 789.53 | – | 1.488
x2 = 0.3077 | – | 1211 | –
x2 = 0.3581 | 786.7 | – | 1.317
x2 = 0.3974 | 784.89 | – | 1.219
x2 = 0.3999 | – | 1206 | –
x2 = 0.4481 | 782.64 | – | 1.113
x2 = 0.4885 | 780.93 | – | 1.044
x2 = 0.4976 | – | 1203 | –
x2 = 0.5997 | – | 1202 | –
x2 = 0.6007 | 776.49 | – | 0.901
x2 = 0.6973 | 773.05 | – | 0.819
x2 = 0.6984 | – | 1204 | –
x2 = 0.8001 | 769.78 | – | 0.75
x2 = 0.8007 | – | 1207 | –
x2 = 0.8981 | 767.12 | – | 0.704
x2 = 0.8998 | – | 1211 | –
x2 = 0.9488 | – | 1211 | –

CC(C)O [propan-2-ol]
[2]
Details | mass density [kg/m3] | speed of sound [m/s] | viscosity [mPa·s]
Capillary tube (Ostwald / Ubbelohde) method | – | – | 2.098
Quartz crystal interferometer (Mittal Enterprises, India) | – | 1142 | –
Vibrating tube method | 781.06 | – | –

CC1CCCCC1 [methylcyclohexane] + CC(C)O
[1]
Details | mass density [kg/m3] | speed of sound [m/s] | viscosity [mPa·s]
x1 = 0.0648 | 778.57 | – | 1.771
x1 = 0.1102 | 776.98 | – | 1.589
x1 = 0.1123 | – | 1143 | –
x1 = 0.1475 | 775.78 | – | 1.462
x1 = 0.2041 | 774.1 | – | 1.315
x1 = 0.2053 | – | 1143 | –
x1 = 0.2422 | 773.07 | – | 1.232
x1 = 0.303 | 771.57 | – | 1.113
x1 = 0.3034 | – | 1144 | –
x1 = 0.3511 | 770.5 | – | 1.034
x1 = 0.3937 | – | 1148 | –
x1 = 0.3947 | 769.61 | – | 0.975
x1 = 0.4603 | 768.4 | – | 0.896
x1 = 0.4954 | 767.81 | – | 0.86
x1 = 0.5031 | – | 1155 | –
x1 = 0.5589 | 766.86 | – | 0.801
x1 = 0.578 | 766.6 | – | 0.789
x1 = 0.5788 | – | 1160 | –
x1 = 0.6707 | 765.53 | – | 0.734
x1 = 0.6715 | – | 1168 | –
x1 = 0.7466 | – | 1176 | –
x1 = 0.7715 | – | 1178 | –
x1 = 0.7727 | 764.75 | – | 0.695
x1 = 0.8299 | – | 1184 | –
x1 = 0.8993 | – | 1194 | –
x1 = 0.9011 | 764.45 | – | 0.679
x1 = 0.9472 | – | 1201 | –

Source: the NIST ThermoML archive (doi:10.1016/j.jct.2005.04.019)
